How the values were obtained:
Test in all cases: concentration in plasma after dosing
[1] = tested on: Rat; conditions: dosed: Bromochloroacetic acid, 10 mg/kg, oral, Male, Harlan Sprague Dawley
[2] = tested on: Rat; conditions: dosed: Bromochloroacetic acid, 10 mg/kg, oral, Male, Harlan Sprague Dawley; remark: listed apart in the source
[3] = tested on: Rat; conditions: 20 min; dosed: Bromochloroacetic acid; 10 mg/kg; oral; Male; Harlan Sprague Dawley
[4] = tested on: Rat; conditions: dosed: Bromochloroacetic acid, 40 mg/kg, oral, Female, Harlan Sprague Dawley
[5] = tested on: Rat; conditions: dosed: Bromochloroacetic acid, 10 mg/kg, oral, Male, Harlan Sprague Dawley; remark: listed apart in the source
[6] = tested on: Rat; conditions: dosed: Bromochloroacetic acid, 10 mg/kg, oral, Male, Harlan Sprague Dawley; remark: listed apart in the source
[7] = tested on: Rat; conditions: 0.75 h; dosed: Bromochloroacetic acid; 40 mg/kg; oral; Female; Harlan Sprague Dawley
[8] = tested on: Rat; conditions: 5 min; dosed: Bromochloroacetic acid; 40 mg/kg; oral; Female; Harlan Sprague Dawley
[9] = tested on: Rat; conditions: dosed: Bromochloroacetic acid, 40 mg/kg, oral, Female, Harlan Sprague Dawley; remark: listed apart in the source
[10] = tested on: Rat; conditions: dosed: Bromochloroacetic acid, 40 mg/kg, oral, Female, Harlan Sprague Dawley; remark: listed apart in the source
[11] = tested on: Rat; conditions: 20 min; dosed: Bromochloroacetic acid; 10 mg/kg; oral; Male; Harlan Sprague Dawley; remark: listed apart in the source
[12] = tested on: Rat; conditions: 0.75 h; dosed: Bromochloroacetic acid; 40 mg/kg; oral; Female; Harlan Sprague Dawley; remark: listed apart in the source
[13] = tested on: Rat; conditions: dosed: Bromochloroacetic acid, 40 mg/kg, oral, Female, Harlan Sprague Dawley; remark: listed apart in the source
[14] = tested on: Rat; conditions: 0.25 h; dosed: Bromochloroacetic acid; 10 mg/kg; oral; Male; Harlan Sprague Dawley
[15] = tested on: Rat; conditions: 0.75 h; dosed: Bromochloroacetic acid; 40 mg/kg; oral; Female; Harlan Sprague Dawley; remark: listed apart in the source
[16] = tested on: Rat; conditions: 0.75 h; dosed: Bromochloroacetic acid; 40 mg/kg; oral; Female; Harlan Sprague Dawley; remark: listed apart in the source
[17] = tested on: Rat; conditions: dosed: Bromochloroacetic acid, 10 mg/kg, oral, Male, Harlan Sprague Dawley; remark: listed apart in the source
[18] = tested on: Rat; conditions: dosed: Bromochloroacetic acid, 10 mg/kg, oral, Male, Harlan Sprague Dawley; remark: listed apart in the source
[19] = tested on: Rat; conditions: dosed: Bromochloroacetic acid, 40 mg/kg, oral, Female, Harlan Sprague Dawley; remark: listed apart in the source
[20] = tested on: Rat; conditions: 20 min; dosed: Bromochloroacetic acid; 10 mg/kg; oral; Male; Harlan Sprague Dawley; remark: listed apart in the source
[21] = tested on: Rat; conditions: dosed: Bromochloroacetic acid, 10 mg/kg, oral, Male, Harlan Sprague Dawley; remark: listed apart in the source
[22] = tested on: Rat; conditions: dosed: Bromochloroacetic acid, oral, Harlan Sprague Dawley

Work on O=C(O)C(Cl)Br (stereo not given) [Bromochloroacetic acid] yielded a concentration in plasma ([1]; 10 min) of 475 ng/mL, a concentration in plasma ([1]; 1.5 h) of 122 ng/mL and a concentration in plasma ([2]; 2 min) of 104 ng/mL. The concentration in plasma ([2]; 0.75 h) was 218 ng/mL, the concentration in plasma [3] was 544 ng/mL and the concentration in plasma ([4]; 10 min) was 2240 ng/mL. The concentration in plasma ([4]; 2 h) was 4710 ng/mL, the concentration in plasma ([5]; 2 min) was 104 ng/mL and the concentration in plasma ([5]; 0.75 h) was 225 ng/mL. It also gave a concentration in plasma ([6]; 0.25 h) of 643 ng/mL, a concentration in plasma ([6]; 2 h) of 120 ng/mL and a concentration in plasma [7] of 10700 ng/mL. For the same compound, the concentration in plasma [8] was 2990 ng/mL, the concentration in plasma ([9]; 5 min) was 2780 ng/mL and the concentration in plasma ([9]; 1.5 h) was 6540 ng/mL. It also gave a concentration in plasma ([10]; 0.25 h) of 3060 ng/mL, a concentration in plasma ([10]; 3 h) of 1880 ng/mL and a concentration in plasma [11] of 663 ng/mL. For the same compound, the concentration in plasma [12] was 9710 ng/mL, the concentration in plasma ([13]; 4 h) was 1060 ng/mL and the concentration in plasma ([13]; 6 h) was 172 ng/mL. The concentration in plasma [14] was 476 ng/mL, the concentration in plasma [15] was 6170 ng/mL and the concentration in plasma [16] was 10300 ng/mL. For the same compound, the concentration in plasma ([17]; 10 min) was 494 ng/mL, the concentration in plasma ([17]; 1.5 h) was 107 ng/mL and the concentration in plasma ([18]; 5 min) was 255 ng/mL. For the same compound, the concentration in plasma ([18]; 1 h) was 164 ng/mL, the concentration in plasma ([19]; 10 min) was 2220 ng/mL and the concentration in plasma ([19]; 2 h) was 3920 ng/mL. The concentration in plasma [20] was 733 ng/mL, the concentration in plasma ([21]; 10 min) was 516 ng/mL and the concentration in plasma ([21]; 1.5 h) was 238 ng/mL. For the same compound, the concentration in plasma ([22]; 2 min, 10 mg/kg, Male) was 83.2 ng/mL, the concentration in plasma ([22]; 5 min, 10 mg/kg, Male) was 214 ng/mL and the concentration in plasma ([22]; 5 min, 40 mg/kg, Female) was 1770 ng/mL. For the same compound, the concentration in plasma ([22]; 10 min, 10 mg/kg, Male) was 168 ng/mL, the concentration in plasma ([22]; 10 min, 40 mg/kg, Female) was 3420 ng/mL and the concentration in plasma ([22]; 0.25 h, 10 mg/kg, Male) was 543 ng/mL. It also gave a concentration in plasma ([22]; 0.25 h, 40 mg/kg, Female) of 5910 ng/mL, a concentration in plasma ([22]; 20 min, 10 mg/kg, Male) of 364 ng/mL and a concentration in plasma ([22]; 20 min, 40 mg/kg, Female) of 4390 ng/mL. It also gave a concentration in plasma ([22]; 0.75 h, 10 mg/kg, Male) of 177 ng/mL, a concentration in plasma ([22]; 0.75 h, 40 mg/kg, Female) of 7630 ng/mL and a concentration in plasma ([22]; 1 h, 10 mg/kg, Male) of 187 ng/mL. It also gave a concentration in plasma ([22]; 1 h, 40 mg/kg, Female) of 6900 ng/mL, a concentration in plasma ([22]; 1.5 h, 10 mg/kg, Male) of 166 ng/mL and a concentration in plasma ([22]; 1.5 h, 40 mg/kg, Female) of 4860 ng/mL. It also gave a concentration in plasma ([22]; 2 h, 10 mg/kg, Male) of 95.5 ng/mL and a concentration in plasma ([22]; 2 h, 40 mg/kg, Female) of 2940 ng/mL.

Reference: EPA's CvTdb concentration-time database
